Assay results taken from patent publication US20210145930A1, “MULTIPLE LAYER ARTICLE WITH INTERACTIVE REINFORCEMENTS LINEAR RIBBON FIBER REINFORCEMENT FOR COMPOSITE FORMS” (NeuroTheranostics, Inc., priority 2018, published 2021).
No end group written: not given here.

Columns and labels:
Format in all cases: in vivo, Sprague-Dawley rats
[1] = system: rats with mild-moderate TBI; assay: Modified neurological severity score (mNSS) after controlled cortical impact TBI; details: 3 mg/kg i.v. at 24 h and 48 h post injury; Days 14-25 after TBI; vs saline-treated group, P<0.05
Experimental: (§1) A controlled cortical impact (CCI) device was used to induce mild-moderate TBI. Adult male (280-300 g) Sprague-Dawley rats (Harlan: Indianapolis, Ind.) were anesthetized intraperitoneally with xylazine (10 mg/kg body weight) and ketamine (40 mg/kg body weight). Rectal temperature was maintained at 37° C. using a feedback-regulated water-heating pad. The surgical area of the skull was prepared using germicidal povidone-iodine scrub followed by a 70% isopropyl alcohol rinse combinations, being careful to scrub from the center of the surgical site toward the periphery. Rats were placed in a stereotactic frame. […] Velocity was measured with a linear velocity displacement transducer. […] Neurological functional outcome was measured by the modified neurological severity score (mNSS), Morris Water Maze (MWM) and foot-fault test. mNSS is a composite of the motor (muscle status, abnormal movement), sensory (visual, tactile and proprioceptive) and reflex tests. […] If the animal reached the platform within 90 sec, the percentage of time traveled within the NE (correct) quadrant was calculated relative to the total amount of time spent swimming before reaching the platform and employed for statistical analysis. […] Rats were monitored continuously while in the tank. […] When animals inaccurately place a limb, the limb falls through one of the openings in the grid, which is counted as a foot fault. […]

[2] = system: rats with mild-moderate TBI; assay: Endothelial barrier antigen (EBA) staining, vascular density after controlled cortical impact TBI; details: 3 mg/kg i.v. at 24 h and 48 h post injury; 25 days after TBI; vs saline-treated rats, p<0.05, n=7
Excerpt: (§2) A large part of the functional recovery that occurs after brain injury is due to neurogenesis, and brain plasticity caused by anatomical and functional reorganization of the CNS. To determine the effect of SEQ ID NO. 5 on neurogenesis, the brain blocks containing the hippocampus were processed for vibratome sections (100 μm) followed by double fluorescence staining for endogenous cellular proliferation {BrdU positive cells (red) and MAP 2 (green) to identify newborn neurons in the ipsilateral dentate gyrus (DG) of the hippocampus. Five sections with 100-μm intervals from the dorsal dentate gyms were used for immunohistochemical staining with the same antibody. […] Quantitative measurements of immunostaining were performed by an observer blinded to the individual treatment status of the animals. […] The cells with BrdU that clearly localized to the nucleus were counted as BrdU-positive cells. […] The fluorescent images were analyzed with a Bio-Rad MRC 1024 (argon and krypton) laser-scanning confocal imaging system mounted onto a Zeiss microscope (Bio-Rad, Cambridge, Mass.). […]
Endothelial barrier antigen (EBA)-staining has been used to identify vascular structure in the brain after ischemic brain injury. […] 5-therapy on vessel proliferation and vascular density, quantitative measurement of Endothelial Barrier Antigen (EBA) staining was performed. […]

[3] = system: rats with mild-moderate TBI; assay: BrdU immunostaining, cell proliferation after controlled cortical impact TBI; details: 3 mg/kg i.v. at 24 h and 48 h post injury; examined 25 days after TBI; vs saline controls, p<0.05, n=7
Experimental: BrdU, an analog of thymidine, can be incorporated into the newly synthesized DNA of replicating cells during the S phase of the cell cycle, substituting for thymidine during DNA replication. BrdU immunostaining is commonly used to detect cell proliferation. To determine the effect of SEQ ID NO. 5 (3 mg/kg, i.v.) or saline on cell proliferation, BrdU (100mg/kg) was injected i.p. daily starting at day 1 after mild-moderate TBI and continued for 10 days after TBI to label newly generated cells. Twenty-five days after TBI, the animals were anesthetized and sacrificed. The brains were fixed in 4% paraformaldehyde and cut into seven equally spaced 2-mm coronal blocks using a rat brain matrix. […] 5-treated rats examined at 25 days after TBI, compared to the saline controls. […]
A large part of the functional recovery that occurs after brain injury is due to neurogenesis, and brain plasticity caused by anatomical and functional reorganization of the CNS. […] 5 on neurogenesis, the brain blocks containing the hippocampus were processed for vibratome sections (100 μm) followed by double fluorescence staining for endogenous cellular proliferation {BrdU positive cells (red) and MAP 2 (green) to identify newborn neurons in the ipsilateral dentate gyrus (DG) of the hippocampus. […] Quantitative measurements of immunostaining were performed by an observer blinded to the individual treatment status of the animals. […]

[4] = system: rats with mild-moderate TBI; assay: BrdU/MAP-2 double fluorescence staining, neurogenesis after controlled cortical impact TBI; details: 3 mg/kg i.v. at 24 h and 48 h post injury; 25 days post injury; vs saline controls, p<0.05, n=7
Excerpt: as §2, with “antibody. Sections were blocked in a Tris-buffered saline solution containing 5% normal goat serum, 1% BSA and 0.05% Tween-20.” for “antibody.”
A controlled cortical impact (CCI) device was used to induce mild-moderate TBI. […] Velocity was measured with a linear velocity displacement transducer. […]

[5] = system: rats with mild-moderate TBI; assay: Morris Water Maze (MWM) after controlled cortical impact TBI; details: 3 mg/kg i.v. at 24 h and 48 h post injury; Days 23 to 25 post-injury; vs saline-treated group, P<0.05
Experimental: as §1

[6] = system: rats with mild-moderate TBI; assay: Modified foot-fault test after controlled cortical impact TBI; details: 3 mg/kg i.v. at 24 h and 48 h post injury; up to 25 days after TBI; vs control group
Experimental: as §1

DPMSSTYIEELGKREVTIPPKYVALLPAVLLALLAP [SEQ ID NO. 5]
sensorimotor scores (mNSS) [1]: significantly improved | density (vessels/mm2) of EBA positive vessels in the injured cortex area [2]: significantly increased | number of BrdU-positive cells in the ipsilateral cortex and hippocampus [3]: significantly increased | number of newborn neurons (BrdU/MAP-2 positive) in the ipsilateral DG, per mm^2 [4]: significantly increased | spatial learning and memory retention (percentage of time spent in the correct quadrant, MWM) [5]: significant improvement | neurological function assessed by the footfault test [6]: no significant improvement
